Test results taken from patent publication US20250147039A1, “Compounds for complexation of rare earth elements and/or s-, p-, d- block metals, their coordination compounds, peptide conjugates, method of their preparation and use thereof” (USTAV ORGANICKE CHEMIE A BIOCHEMIE AV CR V.V.I., priority 2021, published 2025).

Columns and labels:
[1] = Formation of 1,5-cz-[M(Lig)] from Lig and M^III ions (metal dependent click-zip) (Charts 4, 5); type: physicochemical; details: MOPS/NaOH buffer pH 7.0, TD728, TD827 in 50% i-PrOH; for conversion to 1,5-cz-[M(Lig)], Y^III: TD714 sum of two diastereoisomers
[2] = Formation of 1,5-cz-[Ln(Lig)] from Lig and Ln^III ions (metal dependent click-zip), MOPS/NaOH buffer pH 7.0, analytical HPLC (Charts 1, 2)
[3] = after 1 week at 80° C., 50% i-PrOH in aq. MOPS/NaOH Buffer pH 7.0
[4] = after 1 hour at 80° C., 50% i-PrOH in aq. MOPS/NaOH Buffer pH 7.0
[5] = after 1 week at 80° C., MOPS/NaOH buffer pH 7.0
[6] = after 1 hour at 80° C., MOPS/NaOH buffer pH 7.0

Compound: C#Cc1cccc(CN2CCN(CC(=O)O)CCN(Cc3cc(C#C[Si](C(C)C)(C(C)C)C(C)C)cc(CN=[N+]=[N-])n3)CCN(CC(=O)O)CC2)n1 [TD827]
- conversion to 1,5-cz-[M(Lig)], Sc^III ([1]; 1 week at 80° C.): 55%
- conversion to 1,5-cz-[M(Lig)], Y^III ([1]; 1 week at 80° C.): 96%
- conversion to 1,5-cz-[M(Lig)], Sc^III ([1]; 1 hour at 80° C.): 2%
- conversion to 1,5-cz-[M(Lig)], Y^III ([1]; 1 hour at 80° C.): 42%
- conversion to 1,5-cz-[Ln(Lig)], Ce^III [2, 3]: 22%
- conversion to 1,5-cz-[Ln(Lig)], Ce^III [2, 4]: 2%
- conversion to 1,5-cz-[Ln(Lig)], Dy^III [2, 3]: 96%
- conversion to 1,5-cz-[Ln(Lig)], Dy^III [2, 4]: 30%
- conversion to 1,5-cz-[Ln(Lig)], Er^III [2, 3]: 96%
- conversion to 1,5-cz-[Ln(Lig)], Er^III [2, 4]: 56%
- conversion to 1,5-cz-[Ln(Lig)], Eu^III [2, 3]: 92%
- conversion to 1,5-cz-[Ln(Lig)], Eu^III [2, 4]: 9%
- conversion to 1,5-cz-[Ln(Lig)], Gd^III [2, 3]: 93%
- conversion to 1,5-cz-[Ln(Lig)], Gd^III [2, 4]: 11%
- conversion to 1,5-cz-[Ln(Lig)], Ho^III [2, 3]: 96%
- conversion to 1,5-cz-[Ln(Lig)], Ho^III [2, 4]: 43%
- conversion to 1,5-cz-[Ln(Lig)], La^III [2, 3]: 46%
- conversion to 1,5-cz-[Ln(Lig)], La^III [2, 4]: 1%
- conversion to 1,5-cz-[Ln(Lig)], Lu^III [2, 3]: 97%
- conversion to 1,5-cz-[Ln(Lig)], Lu^III [2, 4]: 77%
- conversion to 1,5-cz-[Ln(Lig)], Nd^III [2, 3]: 84%
- conversion to 1,5-cz-[Ln(Lig)], Nd^III [2, 4]: 3%
- conversion to 1,5-cz-[Ln(Lig)], Pr^III [2, 3]: 79%
- conversion to 1,5-cz-[Ln(Lig)], Pr^III [2, 4]: 2%
- conversion to 1,5-cz-[Ln(Lig)], Sm^III [2, 3]: 91%
- conversion to 1,5-cz-[Ln(Lig)], Sm^III [2, 4]: 7%
- conversion to 1,5-cz-[Ln(Lig)], Tb^III [2, 3]: 95%
- conversion to 1,5-cz-[Ln(Lig)], Tb^III [2, 4]: 21%
- conversion to 1,5-cz-[Ln(Lig)], Tm^III [2, 3]: 97%
- conversion to 1,5-cz-[Ln(Lig)], Tm^III [2, 4]: 68%
- conversion to 1,5-cz-[Ln(Lig)], Yb^III [2, 3]: 97%
- conversion to 1,5-cz-[Ln(Lig)], Yb^III [2, 4]: 75%

Compound: [N-]=[N+]=NCc1cccc(CN2CCN(CC(=O)O)CCN(Cc3cccc(C#CC4CC4)n3)CCN(CC(=O)O)CC2)n1 [TD943]
- conversion to 1,5-cz-[M(Lig)], Sc^III ([1]; 1 week at 80° C.): 5%
- conversion to 1,5-cz-[M(Lig)], Y^III ([1]; 1 week at 80° C.): 74%
- conversion to 1,5-cz-[M(Lig)], Sc^III ([1]; 1 hour at 80° C.): 0%
- conversion to 1,5-cz-[M(Lig)], Y^III ([1]; 1 hour at 80° C.): 1%
- conversion to 1,5-cz-[Ln(Lig)], Ce^III [2, 5]: 4%
- conversion to 1,5-cz-[Ln(Lig)], Ce^III [2, 6]: 0%
- conversion to 1,5-cz-[Ln(Lig)], Dy^III [2, 5]: 65%
- conversion to 1,5-cz-[Ln(Lig)], Dy^III [2, 6]: 1%
- conversion to 1,5-cz-[Ln(Lig)], Er^III [2, 5]: 88%
- conversion to 1,5-cz-[Ln(Lig)], Er^III [2, 6]: 2%
- conversion to 1,5-cz-[Ln(Lig)], Eu^III [2, 5]: 36%
- conversion to 1,5-cz-[Ln(Lig)], Eu^III [2, 6]: 0%
- conversion to 1,5-cz-[Ln(Lig)], Gd^III [2, 5]: 40%
- conversion to 1,5-cz-[Ln(Lig)], Gd^III [2, 6]: 0%
- conversion to 1,5-cz-[Ln(Lig)], Ho^III [2, 5]: 77%
- conversion to 1,5-cz-[Ln(Lig)], Ho^III [2, 6]: 2%
- conversion to 1,5-cz-[Ln(Lig)], La^III [2, 5]: 5%
- conversion to 1,5-cz-[Ln(Lig)], La^III [2, 6]: 0%
- conversion to 1,5-cz-[Ln(Lig)], Lu^III [2, 5]: 97%
- conversion to 1,5-cz-[Ln(Lig)], Lu^III [2, 6]: 5%
- conversion to 1,5-cz-[Ln(Lig)], Nd^III [2, 5]: 16%
- conversion to 1,5-cz-[Ln(Lig)], Nd^III [2, 6]: 0%
- conversion to 1,5-cz-[Ln(Lig)], Pr^III [2, 5]: 10%
- conversion to 1,5-cz-[Ln(Lig)], Pr^III [2, 6]: 0%
- conversion to 1,5-cz-[Ln(Lig)], Sm^III [2, 5]: 29%
- conversion to 1,5-cz-[Ln(Lig)], Sm^III [2, 6]: 0%
- conversion to 1,5-cz-[Ln(Lig)], Tb^III [2, 5]: 56%
- conversion to 1,5-cz-[Ln(Lig)], Tb^III [2, 6]: 1%
- conversion to 1,5-cz-[Ln(Lig)], Tm^III [2, 5]: 94%
- conversion to 1,5-cz-[Ln(Lig)], Tm^III [2, 6]: 3%
- conversion to 1,5-cz-[Ln(Lig)], Yb^III [2, 5]: 97%
- conversion to 1,5-cz-[Ln(Lig)], Yb^III [2, 6]: 3%
